These results are taken from patent US8138186B2, “Pyrazole derivatives as sigma receptors antagonists” (Laboratorios Del Dr. Esteve, S.A., priority 2006, dated 2012).

Counter-ions that a name gives are not always drawn.

One series deals with σ1-receptor (Cavia porcellus, UniProt Q60492). Kind of series: σ1-receptor binding assay, [3H](+)-pentazocine, brain membranes. As to conditions: [3H](+)-pentazocine 0.5 nM, guinea pig brain membranes; for % Binding σ1 10^−7M: compound 10^−7M; for % Binding σ1 10^−8M: compound 10^−8M.
For series [1] the following is noted: cited from earlier work.
For a further series, the target named is sigma 1 (σ-1) site (Homo sapiens, UniProt Q99720). As to conditions: cited from earlier work.
A further series concerns the target sigma (σ-2) site (Homo sapiens, UniProt Q5BJF2). As to conditions: cited from earlier work.

Sequence of σ1-receptor (Q60492 whole entry): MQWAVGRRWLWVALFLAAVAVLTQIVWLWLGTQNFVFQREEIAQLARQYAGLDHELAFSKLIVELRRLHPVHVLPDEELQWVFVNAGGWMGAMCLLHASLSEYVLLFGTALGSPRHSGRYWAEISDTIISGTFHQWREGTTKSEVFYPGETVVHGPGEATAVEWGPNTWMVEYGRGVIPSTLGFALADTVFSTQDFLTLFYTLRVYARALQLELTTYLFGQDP
Sequence of sigma 1 (σ-1) site (Q99720 whole entry): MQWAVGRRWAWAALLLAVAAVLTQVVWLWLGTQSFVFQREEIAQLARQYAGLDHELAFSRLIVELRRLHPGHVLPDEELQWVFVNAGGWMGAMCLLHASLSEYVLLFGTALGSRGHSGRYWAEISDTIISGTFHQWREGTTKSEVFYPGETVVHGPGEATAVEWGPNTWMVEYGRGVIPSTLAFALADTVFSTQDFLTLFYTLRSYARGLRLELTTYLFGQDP
Sequence of sigma (σ-2) site (Q5BJF2 whole entry): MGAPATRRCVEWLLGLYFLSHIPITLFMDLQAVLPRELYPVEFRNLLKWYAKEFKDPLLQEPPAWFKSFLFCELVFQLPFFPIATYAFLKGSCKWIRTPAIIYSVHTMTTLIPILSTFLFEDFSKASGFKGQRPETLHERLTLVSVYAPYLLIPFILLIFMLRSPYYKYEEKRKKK
Protocol for σ1-receptor: Brain membrane preparation and binding assays for the σ1-receptor were performed as described (DeHaven-Hudkins et al., 1992) with some modifications. In brief, guinea pig brains were homogenized in 10 vols. (w/v) of Tris-HCl 50 mM 0.32 M sucrose, pH 7.4, with a Kinematica Polytron PT 3000 at 15000 r.p.m. for 30 s. The homogenate was centrifuged at 1000 g for 10 min at 4° C. and the supernatants collected and centrifuged again at 48000 g for 15 min at 4° C. The pellet was resuspended in 10 volumes of Tris-HCl buffer (50 mM, pH 7.4), incubated at 37° C. for 30 min, and centrifuged at 48000 g for 20 min at 4° C. Following this, the pellet was resuspended in fresh Tris-HCl buffer (50 mM, pH 7.4) and stored on ice until use.
Each assay tube contained 10 μL of [^3H](+)-pentazocine (final concentration of 0.5 nM), 900 μL of the tissue suspension to a final assay volume of 1 mL and a final tissue concentration of approximately 30 mg tissue net weight/mL. […] All tubes were incubated at 37° C. for 150 min before termination of the reaction by rapid filtration over Schleicher & Schuell GF 3362 glass fibre filters [previously soaked in a solution of 0.5% polyethylenimine for at least 1 h]. Filters were then washed with four times with 4 mL of cold Tris-HCl buffer (50 mM, pH 7.4). Following addition of scintillation cocktail, the samples were allowed to equilibrate overnight. The amount of bound radioactivity was determined by liquid scintillation spectrometry using a Wallac Winspectral 1414 liquid scintillation counter.

In turn, `CN1CCN(CC(O)COc2ccn(-c3ccc(Cl)c(Cl)c3)n2)CC1.O=C(O)C(=O)O` (stereo not shown) returned a melting point of 189 to 192 °C.
For `OC(COc1ccn(-c2ccc(Cl)c(Cl)c2)n1)CN1CCOCC1` (stereo not shown) [Example 1, 1-(1-(3,4-dichlorophenyl)-1H-pyrazol-3-yloxy)-3-morpholinopropan-2-ol oxalate], at σ1-receptor, the “% Binding σ1 10^−7M” value stood at 70.3% and the “% Binding σ1 10^−8M” value is on record as 22.2%.
`O=C(O)C(=O)O.OC(COc1ccn(-c2ccc(Cl)c(Cl)c2)n1)CN1CCCCC1` (stereo not shown) [Example 2, 1-(1-(3,4-dichlorophenyl)-1H-pyrazol-3-yloxy)-3-(piperidin-1-yl)propan-2-ol oxalate] returned a melting point of 116 to 119 °C. Further, on σ1-receptor, the “% Binding σ1 10^−7M” value was 72.2% and the “% Binding σ1 10^−8M” value was 4.2%.
For the compound `O=C(O)C(=O)O.OC(COc1ccn(-c2ccc(Cl)c(Cl)c2)n1)CN1CCCC1` (stereo not shown) [Example 3, 1-(1-(3,4-dichlorophenyl)-1H-pyrazol-3-yloxy)-3-(pyrrolidin-1-yl)propan-2-ol oxalate], on σ1-receptor, the “% Binding σ1 10^−7M” value stood at 55.9% and the “% Binding σ1 10^−8M” value was found to be 32.6%.
As for `Clc1ccc(-n2ccc(OCCOCCN3CCCCC3)n2)cc1Cl` [Example 6, 1-(2-(2-(1-(3,4-dichlorophenyl)-1H-pyrazol-3-yloxy)ethoxy)ethyl)piperidine], on σ1-receptor, the “% Binding σ1 10^−7M” value is reported as 82.8% and the “% Binding σ1 10^−8M” value is reported as 23.7%.
As to `Clc1ccc(-n2ccc(OCCOCCN3CCOCC3)n2)cc1Cl.O=C(O)C(=O)O` [Example 7, 4-(2-(2-(1-(3,4-dichlorophenyl)-1H-pyrazol-3-yloxy)ethoxy)ethyl)morpholine oxalate], the melting point was in the range of 154 to 156 °C. Also, at σ1-receptor, the “% Binding σ1 10^−7M” value worked out at 61.6% and the “% Binding σ1 10^−8M” value worked out at 25.8%.
`C[C@@H]1CN(CCCn2c3ccccc3c3ccccc32)C[C@H](C)N1` [rimcazole]: the “clinical effects in the treatment of psychosis” value in series [1] is on record as “shows effects in the treatment of psychosis”.
With SKF 10047, the “affinity for the sigma 1 (σ-1) site” value at sigma 1 (σ-1) site is reported as “nanomolar affinity”. At sigma (σ-2) site, the “affinity for the sigma (σ-2) site” value is “micromolar affinity”.
